In data set [1] the test system is greenhouse whitefly, Trialeurodes vaporariorum Westwood. Briefly: Spray bioassay against the greenhouse whitefly. Type of data set: in vivo. The settings on record: group 2 SE, 1.0 mg/ml spray solution, after 24 hours, average of number of tests. As for the experimental part:
(§1) Bioassays of the total SE reaction products as well as of the individual groups of SE were conducted using the tobacco aphid, Myrzus Nicotiana Blackman, the greenhouse whitefly, Trialeurodes vaporariorum Westwood, and the sweetpotato whitefly, Bemisia tabaci Gennadius. Aqueous dispersions of sugar ester fractions, obtained from the column chromatographic step or the total reaction SE products were tested generally at a concentration of 1 mg/ml of water. To prepare the sprayable aqueous mixtures, a small amount of methanol (approximately about 20 μl per 10 mg of dried test compound) is added to the dried test compound. This is agitated gently. Then acetone is added to the methanol mixture to yield a concentration of approximately about 0.05 g/ml. This is shaken gently. To obtain a final, sprayable concentration of approximately about 1 mg sucrose ester/ml, about 10 ml of water are added to the mixture. This is then placed into an ultrasonic bath for 20 minutes. The resulting solution is ready to spray. Green-house reared apterous (wingless) aphids, that colonized a green tobacco plant, were removed with a leaf, sprayed, and kept in a closed petri dish. Percent mortality was determined after 24 hours. In a similar manner, bioassays against the green house whitefly or sweetpotato whitefly are conducted by spraying sucrose ester dispersions at 1 mg/ml of water onto whiteflies, trapped on a sticky surface, and determining percent mortality after 2-24 hours. Tables II and III below show the percent mortality of aphids treated by the individual sucrose ester groups and the total SE reaction products.

The test system of data set [2] is tobacco aphid, Myrzus Nicotiana Blackman. Briefly: Spray bioassay against tobacco aphids. The conditions noted are these: individual SE groups; 1 mg SE/ml aqueous spray solution; after 24 hours; average of number of tests. The data set is classed as in vivo. Here is the method: as §1

One may read the mortality as the share of the test organisms that died. Higher therefore signals fewer survivors. `CCCCCCCC(=O)OCC1OC(OC2(CO)OC(COC(=O)CCCCCCC)C(O)C2O)C(O)C(O)C1O` (single isomer, unassigned) [dioctanoyl sucrose] showed a mortality at 1000 µg/mL in data set [1] (Trialeurodes vaporariorum) of 100%. Also, the “% Mortality” value in data set [2] is 88%.
Take `CCCCCCCC(=O)OCC1OC(OC2(COC(=O)CCCCCCC)OC(COC(=O)CCCCCCC)C(O)C2O)C(O)C(O)C1O` (single isomer, unassigned) [trioctanoyl sucrose]: the “% Mortality” value in data set [2] worked out at 27%.
As for didecanoyl sucrose, the “% Mortality” value in data set [1] is given as 100%; in data set [2] it was 43%.
In the case of didodecanoyl sucrose, the “% Mortality” value in data set [1] is 100%; in data set [2], 23%.
For diheptanoyl sucrose, in that order: 100% and 88%.
In the case of dihexanoyl sucrose, the “% Mortality” value in data set [1] is listed as 77%.
In the case of dinonanoyl sucrose, the “% Mortality” value is 87% in data set [1] and 64% in data set [2].
For monodecanoyl sucrose, in data set [2], the “% Mortality” value amounted to 47%.
Same read-out and setting: the figure for monododecanoyl sucrose is 47%; for monoheptanoyl sucrose it is 17%.
monononanoyl sucrose: the “% Mortality” value in data set [2] turned out to be 16%.
On to monooctanoyl sucrose, for which the “% Mortality” value in data set [2] is listed as 11%.
The same measure, in the same setting: the figure for tridecanoyl sucrose is 15%.
Take tridnanoyl sucrose: the “% Mortality” value in data set [2] was 13%.
Still for that read-out and setting: the figure for tridodecanoyl sucrose is 15%.
Regarding triheptanoyl sucrose, the “% Mortality” value in data set [2] is reported as 16%.

For the origin of these results see patent US6605598B1, “Chemically synthesized sugar esters for the control of soft-bodied arthropods” (The United States of America as represented by the …, priority 1994, dated 2003).
